Source: article PMC2990605 (British Journal of Cancer, 2010)
“Also recorded” adds a separate entry of the source.

Experiments:
[1] = test system: advanced solid malignancies; assay: Antitumour activity, Response Evaluation Criteria in Solid Tumors; format: in vivo, patients; conditions: tosedostat with paclitaxel
Experimental: Response was evaluated according to Response Evaluation Criteria in Solid Tumors ([Therasse et al, 2000]) after every second cycle.

[2] = Plasma pharmacokinetics of tosedostat, CHR-79888 and paclitaxel (LC-MS/MS, noncompartmental); conditions: for AUC(0-t) / Cmax / Tmax / half-life / Vd/F: human, oral, mean (±s.e.m.); for AUC(0-t): AUC0−t; for half-life: T½; for Vd/F: Vz/F
Experimental: On day 21, samples were taken until 8 h post-dose; the day 22 predose sample was used as the 24 h sample of day 21. […] Peak plasma concentrations (Cmax), overall drug exposure (AUC), and terminal plasma half-life (t½) were calculated using noncompartmental methods using WinNonlin Professional software (version 4.1, Pharsight Corporation, St Louis, MO, USA). Pharmacokinetics analysis, with reference to possible interactions, was descriptive.

[3] = Dose-limiting toxicity and maximum tolerated dose of the paclitaxel/tosedostat combination; format: in vivo, patients
Experimental: The starting dose of CHR-2797 was 90 mg daily, below the MTD.
Toxicity was evaluated according to common toxicity criteria for adverse events (CTCAEv3.0). The MTD was defined as the dose level(s) at which at least two out of six patients developed DLT.

relapsed/refractory AML = test system: relapsed/refractory AML; design: method as in Ossenkoppele et al, 2009; Reid et al, 2009; conditions: tosedostat monotherapy, ref Ossenkoppele et al, 2009, Reid et al; cited from earlier work
[4] = plasma, 90 mg, cohort 1: CHR-2797 90 mg, paclitaxel 135 mg m^−2, day 21, tosedostat without paclitaxel, plasma
[5] = plasma, 90 mg, cohort 2: CHR-2797 90 mg, paclitaxel 175 mg m^−2, day 21, tosedostat without paclitaxel, plasma
[6] = plasma, 130 mg, cohort 3: CHR-2797 130 mg, paclitaxel 175 mg m^−2, day 21, tosedostat without paclitaxel, plasma
[7] = plasma, 180 mg, cohort 4: CHR-2797 180 mg, paclitaxel 175 mg m^−2, day 21, tosedostat without paclitaxel, plasma
[8] = plasma, cohort 1: CHR-2797 90 mg, paclitaxel 135 mg m^−2, day 22, tosedostat in combination with paclitaxel, plasma
[9] = plasma, cohort 2: CHR-2797 90 mg, paclitaxel 175 mg m^−2, day 22, tosedostat in combination with paclitaxel, plasma
[10] = plasma, cohort 3: CHR-2797 130 mg, paclitaxel 175 mg m^−2, day 22, tosedostat in combination with paclitaxel, plasma
[11] = plasma, cohort 4: CHR-2797 180 mg, paclitaxel 175 mg m^−2, day 22, tosedostat in combination with paclitaxel, plasma

With `CC(C)C[C@@H](C(=O)N[C@H](C(=O)OC1CCCC1)c1ccccc1)[C@H](O)C(=O)NO` [tosedostat] the “response duration of PR” value ([1]; patient with malignant melanoma) was 7.2 months, the “response duration of PR” value ([1]; patient with squamous cell non-small-cell lung cancer) was 7.1 months and the “response duration of PR” value ([1]; patient with squamous-cell carcinoma of the oesophagus) was 1.5 months. The “stable disease lasting >3 months, patients” value [1] was 12, the “Median (95% CI) duration of s.d.” value ([1]; 12 patients) was 5.6 (3–6.5) months and the “partial response, patients” value ([1]; 21 assessable patients) was 3. For the same compound, the “stable disease, % of patients” value ([1]; 21 assessable patients) was 57%, the “stable disease, patients” value ([1]; 21 assessable patients) was 12 and the “partial response, % of patients” value ([1]; 21 assessable patients, confirmed after ⩾4 weeks) was 14%. For the same compound, the “effect of paclitaxel coadministration on Cmax, tmax and t½” value ([2]; day 21 versus day 22) was “tendency for a decreased Cmax and an increased tmax and t½”, the “effect of paclitaxel coadministration on overall exposure (AUC0−t)” value ([2]; day 21 versus day 22) was “unaffected by paclitaxel administration; also recorded: unaffected by paclitaxel coadministration” and the AUC(0-t) [2, 4] was 1140 ng·h/mL. For the same compound, the AUC(0-t) [2, 5] was 1890 ng·h/mL, the Cmax [2, 4] was 522 ng/mL and the Cmax [2, 5] was 969 ng/mL. For the same compound, the Tmax [2, 4] was 1.2 h, the Tmax [2, 5] was 1.2 h and the half-life [2, 4] was 1.2 h. For the same compound, the half-life [2, 5] was 1.3 h, the Vd/F [2, 4] was 179 L and the Vd/F [2, 5] was 72 L. It also gave an AUC(0-t) [2, 6] of 1920 ng·h/mL, a Cmax [2, 6] of 880 ng/mL and a Tmax [2, 6] of 1.7 h. For the same compound, the half-life [2, 6] was 1.1 h, the Vd/F [2, 6] was 112 L and the AUC(0-t) [2, 7] was 2520 ng·h/mL. The Cmax [2, 7] was 1400 ng/mL, the Tmax [2, 7] was 1.7 h and the half-life [2, 7] was 1.1 h. The Vd/F [2, 7] was 123 L, the AUC(0-t) [2, 8] was 896 ng·h/mL and the AUC(0-t) [2, 9] was 1410 ng·h/mL. The AUC(0-t) [2, 10] was 1400 ng·h/mL, the AUC(0-t) [2, 11] was 1710 ng·h/mL and the Cmax [2, 8] was 289 ng/mL. It also gave a Cmax [2, 9] of 527 ng/mL, a Cmax [2, 10] of 615 ng/mL and a Cmax [2, 11] of 399 ng/mL. The Tmax [2, 8] was 4 h, the Tmax [2, 9] was 2 h and the Tmax [2, 10] was 1.3 h. It also gave a Tmax [2, 11] of 4 h, a half-life [2, 8] of 2.4 h and a half-life [2, 9] of 3.1 h. For the same compound, the half-life [2, 10] was 4 h, the half-life [2, 11] was 3.1 h and the Vd/F [2, 8] was 258 L. For the same compound, the Vd/F [2, 9] was 276 L, the Vd/F [2, 10] was 587 L and the Vd/F [2, 11] was 471 L. For the same compound, the “PK interaction between tosedostat and paclitaxel” value ([2]; in vivo) was “no PK interaction”, the “overall exposure versus dose” value ([2]; tosedostat 90–180 mg, plasma) was “increased in a dose proportional manner” and the “DLTs observed in the study” value ([3]; all cohorts, 22 patients, tosedostat with paclitaxel) was “only one DLT observed in 22 patients”. The DLT ([3]; cohort 5: tosedostat 180 mg combined with paclitaxel 175 mg m^−2, one patient, first 21 days) was “One DLT (grade 3 dyspnoea); also recorded: CTC grade 3 dyspnoea, with grade 2 fever and persistent grade 3 urinary tract infection”, the “grade 3/4 toxicity in dose-escalation phase” value ([3]; cohort 6: 175 mg m^−2 paclitaxel, 240 mg tosedostat, three patients) was “without any grade 3/4 toxicity” and the “MTD of tosedostat combined with paclitaxel” value ([3]; tosedostat 90–240 mg daily, paclitaxel 135–175 mg m^−2 every 3 weeks) was “No formal MTD was determined; also recorded: Formal MTD was never reached; also recorded: not reached”. For the same compound, the response rate (relapsed/refractory AML) was 31.4%.
